BindingDB's records for doi:10.1016/j.ejmech.2020.112373 (Newlink Genetics, 2020)

Experiments:
[1] = target: Solute carrier family 22 member 1, OCT1 (Homo sapiens) (UniProt O15245); experiment: Inhibition of OCT1 (unknown origin) expressed in HEK293 cells
[2] = target: Solute carrier family 22 member 2, OCT2 (Homo sapiens) (UniProt O15244); experiment: Inhibition of OCT2 (unknown origin) expressed in HEK293 cells
Chain of Solute carrier family 22 member 2, OCT2 (Homo sapiens) (O15244 whole entry, looked up): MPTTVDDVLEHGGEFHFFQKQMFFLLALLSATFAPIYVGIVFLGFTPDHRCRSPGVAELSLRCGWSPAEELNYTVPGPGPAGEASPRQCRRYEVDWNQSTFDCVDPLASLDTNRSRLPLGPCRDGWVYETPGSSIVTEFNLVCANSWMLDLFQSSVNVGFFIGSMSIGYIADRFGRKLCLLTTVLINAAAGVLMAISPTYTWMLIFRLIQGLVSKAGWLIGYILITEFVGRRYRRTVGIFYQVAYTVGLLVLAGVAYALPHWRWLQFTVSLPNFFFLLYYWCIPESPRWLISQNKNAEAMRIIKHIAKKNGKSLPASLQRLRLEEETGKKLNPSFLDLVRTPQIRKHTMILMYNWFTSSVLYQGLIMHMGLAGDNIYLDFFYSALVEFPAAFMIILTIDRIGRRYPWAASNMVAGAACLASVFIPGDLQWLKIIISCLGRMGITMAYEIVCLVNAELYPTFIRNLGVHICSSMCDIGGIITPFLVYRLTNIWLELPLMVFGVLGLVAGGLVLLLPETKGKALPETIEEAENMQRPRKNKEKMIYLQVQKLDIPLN

Chain of Solute carrier family 22 member 1, OCT1 (Homo sapiens) (O15245 whole entry, looked up): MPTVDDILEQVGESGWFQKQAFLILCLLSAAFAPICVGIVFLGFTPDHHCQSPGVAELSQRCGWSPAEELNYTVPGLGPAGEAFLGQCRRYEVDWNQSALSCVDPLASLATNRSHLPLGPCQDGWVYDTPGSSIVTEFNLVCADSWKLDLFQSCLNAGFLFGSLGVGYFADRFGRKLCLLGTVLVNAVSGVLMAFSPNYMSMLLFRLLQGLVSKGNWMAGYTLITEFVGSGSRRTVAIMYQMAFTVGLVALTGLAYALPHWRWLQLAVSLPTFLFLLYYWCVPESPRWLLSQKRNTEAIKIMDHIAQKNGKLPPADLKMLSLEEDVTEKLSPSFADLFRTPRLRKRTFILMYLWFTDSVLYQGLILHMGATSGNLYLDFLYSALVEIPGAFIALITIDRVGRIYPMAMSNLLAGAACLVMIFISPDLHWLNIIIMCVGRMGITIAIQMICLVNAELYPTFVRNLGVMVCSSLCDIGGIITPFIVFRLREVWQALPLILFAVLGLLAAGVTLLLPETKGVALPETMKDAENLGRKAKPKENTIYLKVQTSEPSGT

CCOC(=O)[C@@H](Cc1cn(C)c2ccccc12)NC(=O)[C@@H](N)CC(C)C
IC50 [1]: > 50 µM | IC50 [2]: > 50 µM
